Laboratory results published in ChEMBL document CHEMBL1135236, “Synthesis of iodinated 3beta-aryltropanes with selective binding to either the dopamine or serotonin transporters” (Bioorg Med Chem Lett, 2002).

How the values were obtained:
[1] = molecular target: Sodium-dependent serotonin transporter (Rattus norvegicus, UniProt P31652); test: Tested for the ability to displace [3H]- paroxetine binding in rat frontal cortex membrane against Serotonin transporter; assay type: cell membranes
[2] = molecular target: Sodium-dependent dopamine transporter (Rattus norvegicus, UniProt P23977); test: Tested for the ability to displace [125I]- RTI-55 binding in rat striatal membrane against dopamine transporter; assay type: cell membranes, Striatum
[3] = molecular target: Sodium-dependent serotonin transporter (Rattus norvegicus) (UniProt P31652); test: Ratio of serotonin transporter potency to that of dopamine transporter potency
Sodium-dependent serotonin transporter (Rattus norvegicus), sequence (P31652 whole entry): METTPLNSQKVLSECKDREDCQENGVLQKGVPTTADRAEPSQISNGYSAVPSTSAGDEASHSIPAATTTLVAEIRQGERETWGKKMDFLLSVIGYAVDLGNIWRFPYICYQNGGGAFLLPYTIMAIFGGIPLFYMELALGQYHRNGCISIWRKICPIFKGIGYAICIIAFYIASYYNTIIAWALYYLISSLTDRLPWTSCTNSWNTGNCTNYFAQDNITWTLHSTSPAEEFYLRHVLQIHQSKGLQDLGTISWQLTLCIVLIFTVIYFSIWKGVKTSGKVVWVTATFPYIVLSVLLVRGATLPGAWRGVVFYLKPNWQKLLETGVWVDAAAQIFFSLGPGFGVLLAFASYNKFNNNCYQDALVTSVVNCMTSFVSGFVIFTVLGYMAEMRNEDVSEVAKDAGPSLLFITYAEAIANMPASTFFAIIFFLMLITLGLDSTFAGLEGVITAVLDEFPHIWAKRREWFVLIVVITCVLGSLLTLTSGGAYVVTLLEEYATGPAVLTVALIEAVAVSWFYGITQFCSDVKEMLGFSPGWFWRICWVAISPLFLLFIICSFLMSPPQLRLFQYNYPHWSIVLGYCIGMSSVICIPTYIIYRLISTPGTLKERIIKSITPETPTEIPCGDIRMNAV

Sodium-dependent serotonin transporter, sequence (P31652 whole entry): as above
Sodium-dependent dopamine transporter, sequence (P23977 whole entry): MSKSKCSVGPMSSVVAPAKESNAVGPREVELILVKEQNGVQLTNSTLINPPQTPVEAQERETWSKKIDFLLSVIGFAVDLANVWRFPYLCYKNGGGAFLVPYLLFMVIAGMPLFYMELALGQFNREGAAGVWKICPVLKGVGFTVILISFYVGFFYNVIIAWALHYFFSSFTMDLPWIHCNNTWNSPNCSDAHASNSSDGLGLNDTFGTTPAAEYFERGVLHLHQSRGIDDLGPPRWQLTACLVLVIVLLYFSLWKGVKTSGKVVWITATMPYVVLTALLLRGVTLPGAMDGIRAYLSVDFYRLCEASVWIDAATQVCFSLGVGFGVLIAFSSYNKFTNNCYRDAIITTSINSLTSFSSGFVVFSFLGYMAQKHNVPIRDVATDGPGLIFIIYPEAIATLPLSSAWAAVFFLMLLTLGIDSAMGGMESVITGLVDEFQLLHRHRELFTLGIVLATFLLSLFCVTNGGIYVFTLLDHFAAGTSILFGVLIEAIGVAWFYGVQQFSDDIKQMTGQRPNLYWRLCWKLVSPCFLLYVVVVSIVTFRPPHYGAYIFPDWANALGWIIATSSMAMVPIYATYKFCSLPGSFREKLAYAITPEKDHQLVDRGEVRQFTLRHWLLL

## CCC(=O)C1C(c2ccc(I)cc2)CC2CCC1N2C (centres undefined)
[1]
  Ki: 1.88 nM
[2]
  IC50: 1.69 nM
[3]
  Ratio: 0.9

## Cc1ccc([C@H]2CC3CCC([C@H]2C(=O)C(C/C=C/I)C/C=C/I)N3C)cc1 (some centres undefined)
[1]
  Ki: > 1100 nM
[2]
  IC50: 47.2 nM

## CCC(=O)C1C2CCC(CC1c1ccc(I)c(Cl)c1)N2 (centres undefined)
[1]
  Ki: 1.08 nM
[2]
  IC50: 0.085 nM
[3]
  Ratio: 0.079

## CCC(=O)C1C2CCC(CC1c1ccc(/C=C(/C)I)cc1)N2 (centres undefined)
[1]
  Ki: 0.13 nM
[2]
  IC50: 66.5 nM
[3]
  Ratio: 510

## CCC(=O)C1C2CCC(CC1c1ccc(I)c(F)c1)N2 (centres undefined)
[1]
  Ki: 7.26 nM
[2]
  IC50: 1.08 nM
[3]
  Ratio: 0.15

## CCC(=O)C1C(c2ccc(I)c(F)c2)CC2CCC1N2C (centres undefined)
[1]
  Ki: 9.07 nM
[2]
  IC50: 0.38 nM
[3]
  Ratio: 0.041

## CCC(=O)C1C2CCC(CC1c1ccc(/C=C/I)cc1)N2 (centres undefined)
[1]
  Ki: 0.62 nM
[2]
  IC50: 51.3 nM
[3]
  Ratio: 83

## CCC(=O)C1C(c2cccc(I)c2)CC2CCC1N2C (centres undefined)
[1]
  Ki: 19.7 nM
[2]
  IC50: 56.5 nM
[3]
  Ratio: 2.9

## CCC(=O)C1C2CCC(CC1c1cccc(I)c1)N2 (centres undefined)
[1]
  Ki: 15.7 nM
[2]
  IC50: 19.8 nM
[3]
  Ratio: 1.3

## CCC(=O)C1C(c2ccc(I)c(Cl)c2)CC2CCC1N2C (centres undefined)
[1]
  Ki: 1.14 nM
[2]
  IC50: 0.077 nM
[3]
  Ratio: 0.067

## CCC(=O)C1C(c2ccc(-c3cccn3C)cc2)CC2CCC1N2C/C=C/I (centres undefined)
[1]
  Ki: 2.82 nM
[2]
  IC50: 753 nM
[3]
  Ratio: 270

## Cc1ccc(C2CC3CCC(C2C(=O)CC/C=C/I)N3C)cc1 (centres undefined)
[1]
  Ki: 50.8 nM
[2]
  IC50: 13.3 nM
[3]
  Ratio: 0.26

## CCC(=O)C1C2CCC(CC1c1ccc(/C=C(\C)I)cc1)N2 (centres undefined)
[1]
  Ki: 0.57 nM
[2]
  IC50: 401 nM
[3]
  Ratio: 710

## CCC(=O)C1C(c2ccc(-c3cccn3C)cc2)CC2CCC1N2C/C=C\I (centres undefined)
[1]
  Ki: 13.1 nM
[2]
  IC50: 1120 nM
[3]
  Ratio: 86

## CCC(=O)C1C2CCC(CC1c1ccc(I)cc1)N2 (centres undefined)
[1]
  Ki: 2.44 nM
[2]
  IC50: 2.2 nM
[3]
  Ratio: 0.9
